Data reported in patent US5140040A, “1-aminomethyl-1,2,3,4-tetrahydronaphthalenes” (Abbott Laboratories, priority 1991, dated 1992).
Counter-ions that a name gives are not always drawn.

Target: alpha-2-receptor
Experiment: Radioligand binding, alpha-2 adrenoceptor, rat cerebral cortices, [^3 H]-rauwolscine
Details: for Ki: rat cerebral cortices, [^3 H]-rauwolscine; for alpha-2 - Selectivity Ki alpha-1/Ki alpha 2: ratio of Ki alpha-1 to Ki alpha-2
Experimental: The compounds were assessed for alpha-adrenergic receptor subtype selectivity by use of radioligand binding techniques as described previously (DeBernardis et.al. J. Med. Chem. 28, 1398 (1985)).

In the case of `COc1ccc2c(c1)CCCC2CN(C)CCc1ccsc1` (centres unmarked) [Example 6d, 1--((N-methylamino)methyl N-(2-(3-thienyl)ethyl))-6-methoxy tetralin hydrochloride], the Ki is reported as 1.5 nM and the “alpha-2 - Selectivity Ki alpha-1/Ki alpha 2” value is reported as 333.
With `COc1ccc2c(c1)CCCC2CN(C)CCC1CCCC1` (centres unmarked) [Example 6f, 1-((N-methylamino)methyl N-(2-(cyclopentyl)ethyl)) 6-methoxy tetralin hydrochloride] the Ki was 6.5 nM and the “alpha-2 - Selectivity Ki alpha-1/Ki alpha 2” value was 332.
With `COc1ccc2c(c1)CCCC2CN(C)CCC1CCCS1` (centres unmarked) [Example 6h, 1-((N-methylamino)methyl-N-(2-(2-tetrahydrothienyl)ethyl))-6-methoxy tetralin hydrochloride] the Ki was 3.5 nM and the “alpha-2 - Selectivity Ki alpha-1/Ki alpha 2” value was 430.
`CN(CCc1cccs1)CC1CCCc2cc(O)ccc21` (centres unmarked) [Example 7, 1-((N-Methylamino)methyl-N(2-(2-thienyl)ethyl))-6-hydroxy tetralin hydrochloride] was tested, and the Ki was 1.6 nM and the “alpha-2 - Selectivity Ki alpha-1/Ki alpha 2” value was 353.
With `COc1ccc2c(c1)CCCC2CN(C)CCc1cccn1C` (centres unmarked) [Example 12, 1-((N-Methylamino)methyl-N-(2-(N-methyl2-pyrrolyl)-ethyl))-6-methoxy tetralin fumarate] the Ki was 5 nM and the “alpha-2 - Selectivity Ki alpha-1/Ki alpha 2” value was 242.
With `CN(CCc1cccs1)CC1CCCc2ccccc21` (centres unmarked) [Example 22, 1-((N-Methylamino)methyl-N-(2-(2-thienyl)ethyl)) tetralin hydrochloride] the Ki was 1.3 nM and the “alpha-2 - Selectivity Ki alpha-1/Ki alpha 2” value was 535.
For `CN(CCc1cccs1)CC1CCCc2c1ccc1c2OCO1` (centres unmarked) [Example 23, 1-((N-Methylamino)methyl-N-(2-(2-thienyl)ethyl))-5,6-methylenedioxy tetralin hydrochloride], the Ki was 1.7 nM and the “alpha-2 - Selectivity Ki alpha-1/Ki alpha 2” value was 262.
For `COc1cc2c(c(OC)c1)C(CN(C)CCc1cccs1)CCC2` (centres unmarked) [Example 26, 1-((N-Methylamino)methyl-N-(2-(2-thienyl)ethyl))-6,8-dimethoxy tetralin hydrochloride], the Ki was 0.6 nM and the “alpha-2 - Selectivity Ki alpha-1/Ki alpha 2” value was 292.
`COc1ccc2c(c1)C(CN(C)CCc1cccs1)CCC2` (centres unmarked) [Example 27, 1-((N-Methylamino)methyl-N-(2-(2-thienyl)ethyl))-7-methoxy tetralin hydrochloride] was tested, and the Ki was 2 nM and the “alpha-2 - Selectivity Ki alpha-1/Ki alpha 2” value was 263.
In the case of `COc1ccc(C)c2c1CCCC2CN(C)CCc1cccs1` (centres unmarked) [Example 36, 1-(N-Methylamino)methyl-N-(2-(2-thienyl)ethyl))-5-methoxy-8-methyl tetralin hydrochloride], the Ki is reported as 6.9 nM and the “alpha-2 - Selectivity Ki alpha-1/Ki alpha 2” value is reported as 95.
In the case of `COc1ccc2c(c1)CCC2CN(C)CCc1cccs1` (centres unmarked) [Example 37, 1-((N-Methylamino)methyl-N-(2-(2-thienyl)ethyl))-5-methoxy indane hydrochloride], the Ki is reported as 3.7 nM and the “alpha-2 - Selectivity Ki alpha-1/Ki alpha 2” value is reported as 174.
In the case of `CCN(CCc1cccc(F)c1)CC1CCCc2cc(OC)ccc21` (centres unmarked) [Example 42, 1-((N-Ethylamino)methyl-N-(2-(m-fluorophenyl)ethyl))-6-methoxy tetralin hydrochloride], the Ki is reported as 6.6 nM and the “alpha-2 - Selectivity Ki alpha-1/Ki alpha 2” value is reported as 159.
In the case of `CCN(CCc1ccco1)CC1CCCc2cc(OC)ccc21` (centres unmarked) [Example 43, 1-((N-Ethylamino)methyl-N-(2-(2-furyl)ethyl))-6-methoxy tetralin hydrochloride], the Ki is reported as 6 nM and the “alpha-2 - Selectivity Ki alpha-1/Ki alpha 2” value is reported as 233.
With `CCCN(CCc1cccs1)CC1CCCc2cc(OC)ccc21` (centres unmarked) [Example 58, 1-((N propylamino)methyl)-N-(2-(2-thienyl)ethyl))-6-methoxy tetralin hydrochloride] the Ki was 18 nM and the “alpha-2 - Selectivity Ki alpha-1/Ki alpha 2” value was 102.
In the case of `COc1ccc2c(c1)CCCC2CN(C)CCc1cccc(N)c1` (centres unmarked) [Example 67, 1 ((N-Methylamino)methyl-N-(2-(maminophenyl)ethyl))-6-methoxy tetralin dihydrochloride], the Ki is reported as 6 nM and the “alpha-2 - Selectivity Ki alpha-1/Ki alpha 2” value is reported as 195.
In the case of `CN(CCc1cccc(N)c1)CC1CCCc2cc(O)ccc21` (centres unmarked) [Example 68, 1-((N-Methylamino)methyl N-(2-(m-aminophenyl)ethyl))-6-hydroxy tetralin dihydrobromide], the Ki is reported as 6 nM and the “alpha-2 - Selectivity Ki alpha-1/Ki alpha 2” value is reported as 196.
`CCOc1ccc2c(c1)CCCC2CN(C)CCc1cccc(N)c1` (centres unmarked) [Example 69, 1-((N-Methylamino)methyl-N-(2-(m-aminophenyl)ethyl))-6-ethoxy tetralin dihydrochloride] was tested, and the Ki was 13 nM and the “alpha-2 - Selectivity Ki alpha-1/Ki alpha 2” value was 98.
In the case of `CN(CCc1cccc(F)c1)CC1CCCc2ccccc21` (centres unmarked) [Example 70, 1-((N-Methylamino)methyl-N-(2-(m-fluorophenyl)ethyl))-tetralin hydrochloride], the Ki is reported as 5 nM and the “alpha-2 - Selectivity Ki alpha-1/Ki alpha 2” value is reported as 105.
`CN(CCc1cccc(O)c1)CC1CCCc2cc(O)ccc21` (centres unmarked) [Example 82, 1-((N-Methylamino)methyl-N-(2-(m-hydroxyphenyl)ethyl))-6-hydroxy tetralin hydrochloride] was tested, and the Ki was 4 nM and the “alpha-2 - Selectivity Ki alpha-1/Ki alpha 2” value was 124.
`COc1ccc2c(c1)CCCC2CN(C)CCc1cccc(O)c1` (centres unmarked) [Example 83, 1-((N-Methylamino)methyl-N-(2-(m-hydroxyphenyl)ethyl))-6-methoxy tetralin hydrochloride] was tested, and the Ki was 8 nM and the “alpha-2 - Selectivity Ki alpha-1/Ki alpha 2” value was 119.
In the case of `CN(CCc1cccc(F)c1)CC1CCCc2c1ccc(O)c2O` (centres unmarked) [Example 85, 1-((N-Methylamino)methyl-N-(2-(m-fluorophenyl)ethyl))-5,6-dihydroxy tetralin hydrochloride], the Ki is reported as 1.5 nM and the “alpha-2 - Selectivity Ki alpha-1/Ki alpha 2” value is reported as 173.
`COc1ccc2c(c1OC)CCCC2CN(C)CCc1cccs1` (centres unmarked) [Example 86, 1-((N-Methylamino)methyl-N-(2-(2-thienyl)ethyl))-5,6-dimethoxy tetralin hydrochloride] was tested, and the Ki was 3 nM and the “alpha-2 - Selectivity Ki alpha-1/Ki alpha 2” value was 165.
In the case of `CN(CCc1cccs1)CC1CCCc2c1ccc(O)c2O` (centres unmarked) [Example 87, 1-((N-Methylamino)methyl-N-(2-(2-thienyl)ethyl))-5,6-dihydroxy tetralin hydrochloride], the Ki is reported as 1.6 nM and the “alpha-2 - Selectivity Ki alpha-1/Ki alpha 2” value is reported as 278.
For `CN(CCc1ccccc1)CC1CCCc2ccccc21` (centres unmarked) [Example 88, 1-(N-Methylamino)methyl-N-(2-phenethyl)) tetralin hydrochloride], the Ki was 2 nM and the “alpha-2 - Selectivity Ki alpha-1/Ki alpha 2” value was 158.
With `CN(CCc1ccccc1)CC1CCCc2cc(N)ccc21` (centres unmarked) [Example 114, 1-((N-Methylaminomethyl-N-(2-phenylethyl))-6-aminotetralindihydrochloride] the Ki was 5.7 nM and the “alpha-2 - Selectivity Ki alpha-1/Ki alpha 2” value was 127.
With `CN(CCc1cccs1)CC1CCCc2c1ccc(O)c2I` (centres unmarked) [Example 115, 1-((N-Methylamino)methyl-N-(2-(2-thienyl)ethyl))-5-iodo-6-hydroxy tetralin hydrochloride] the Ki was 3 nM and the “alpha-2 - Selectivity Ki alpha-1/Ki alpha 2” value was 177.
With `COc1ccc2c(c1)CCCC2CN1CCC(c2ccccc2)C1` (centres unmarked) [Example 121, 6-Methoxy-1-(3-phenylpyrrolidino-1-methyl) tetralin hydrochloride] the Ki was 1 nM and the “alpha-2 - Selectivity Ki alpha-1/Ki alpha 2” value was 95.
`COc1cc2c(cc1C)C(CN(C)CCc1ccco1)CCC2` (centres unmarked) [Example 128, 1-((N-Methylamino)methyl-N-(2-(2-furyl)ethyl))-6-methoxy 7-methyl tetralin hydrochloride] was tested, and the Ki was 8 nM and the “alpha-2 - Selectivity Ki alpha-1/Ki alpha 2” value was 107.
